Results: patent publication US11053204B2, “Pyrimidinyloxy benzene derivatives as herbicides” (FMC Corporation, priority 2015, dated 2021)

What was measured:
Type in all cases: in vivo
[1] = tested on: Italian ryegrass (Lolium multiflorum); experiment: Test A preemergence, visual injury rating; settings: for Plant response rating, Ryegrass, Italian: 31 g ai/ha, 0 to 100 scale, 0 no effect, 100 complete control; for Ryegrass, Italian plant response rating: 0 to 100 scale (0 no effect, 100 complete control)
Method in brief: (§1)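 Pre- and postemergence greenhouse screen. Soil: loam + sand. Spray carrier: solvent mixture, non-phytotoxic, with surfactant. Post timing at 1–2 leaves, height 2–10 cm. Readout: visual injury on a 0–100 scale roughly 10 days after application, untreated plants as reference.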

[2] = tested on: barnyardgrass (Echinochloa crus-galli); experiment: Test A preemergence, visual injury rating; settings: for Plant response rating, Barnyardgrass: 31 g ai/ha, 0 to 100 scale, 0 no effect, 100 complete control; for Barnyardgrass plant response rating: 0 to 100 scale (0 no effect, 100 complete control)
Method in brief: as §1

[3] = tested on: giant foxtail (Setaria faberii); experiment: Test A preemergence, visual injury rating; settings: for Plant response rating, Foxtail, Giant: 31 g ai/ha, 0 to 100 scale, 0 no effect, 100 complete control; for Foxtail, Giant plant response rating: 0 to 100 scale (0 no effect, 100 complete control)
Method in brief: as §1

kochia (Kochia scoparia) [4] = experiment: Test A preemergence, visual injury rating; settings: for Plant response rating, Kochia: 31 g ai/ha, 0 to 100 scale, 0 no effect, 100 complete control; for Kochia plant response rating: 0 to 100 scale (0 no effect, 100 complete control)
Method in brief: as §1

[5] = tested on: pigweed (Amaranthus retroflexus); experiment: Test A preemergence, visual injury rating; settings: for Plant response rating, Pigweed: 31 g ai/ha, 0 to 100 scale, 0 no effect, 100 complete control; for Pigweed plant response rating: 0 to 100 scale (0 no effect, 100 complete control)
Method in brief: as §1

[6] = tested on: ragweed (common ragweed, Ambrosia elatior); experiment: Test A preemergence, visual injury rating; settings: for Plant response rating, Ragweed: 31 g ai/ha, 0 to 100 scale, 0 no effect, 100 complete control; for Ragweed plant response rating: 0 to 100 scale (0 no effect, 100 complete control)
Method in brief: as §1

[7] = tested on: Italian ryegrass (Lolium multiflorum); experiment: Test A postemergence, visual injury rating; settings: 0 is no effect, 100 is complete control; for Ryegrass, Italian plant response rating: 31 g ai/ha, 0 to 100 scale, approximately 10 days
Text: (§2) Seeds of plant species selected from barnyardgrass (Echinochloa crus-galli), kochia (Kochia scoparia), ragweed (common ragweed, Ambrosia elatior), Italian ryegrass (Lolium multiflorum), large (Lg) crabgrass (Digitaria sanguinalis), giant foxtail (Setaria faberii), morningglory (Ipomoea spp.), pigweed (Amaranthus retroflexus), velvetleaf (Abutilon theophrasti), wheat (Triticum aestivum), and corn (Zea mays) were planted into a blend of loam soil and sand and treated preemergence with a directed soil spray using test chemicals formulated in a non-phytotoxic solvent mixture which included a surfactant.
(§3) At the same time, plants selected from these crop and weed species and also blackgrass (Alopecurus myosuroides), and galium (catchweed bedstraw, Galium aparine) were planted in pots containing the same blend of loam soil and sand and treated with postemergence applications of test chemicals formulated in the same manner. Plants ranged in height from 2 to 10 cm and were in the one- to two-leaf stage for the postemergence treatment. Treated plants and untreated controls were maintained in a greenhouse for approximately 10 days, after which time all treated plants were compared to untreated controls and visually evaluated for injury. Plant response ratings, summarized in Table A, are based on a 0 to 100 scale where 0 is no effect and 100 is complete control. A dash (-) response means no test result.

[8] = tested on: barnyardgrass (Echinochloa crus-galli); experiment: Test A postemergence, visual injury rating; settings: 0 is no effect, 100 is complete control; for Barnyardgrass plant response rating: 31 g ai/ha, 0 to 100 scale, approximately 10 days
Text: as §2, §3

[9] = tested on: blackgrass (Alopecurus myosuroides); experiment: Test A postemergence, visual injury rating; settings: 0 is no effect, 100 is complete control; for Blackgrass plant response rating: 31 g ai/ha, 0 to 100 scale, approximately 10 days
Text: as §2, §3

corn (Zea mays) = experiment: Test A postemergence, visual injury rating; settings: 0 is no effect, 100 is complete control; for Corn plant response rating: 31 g ai/ha, 0 to 100 scale, approximately 10 days
Text: as §2, §3

[10] = tested on: galium (catchweed bedstraw, Galium aparine); experiment: Test A postemergence, visual injury rating; settings: 0 is no effect, 100 is complete control; for Galium plant response rating: 31 g ai/ha, 0 to 100 scale, approximately 10 days
Text: as §2, §3

[11] = tested on: giant foxtail (Setaria faberii); experiment: Test A postemergence, visual injury rating; settings: 0 is no effect, 100 is complete control; for Foxtail, Giant plant response rating: 31 g ai/ha, 0 to 100 scale, approximately 10 days
Text: as §2, §3

kochia (Kochia scoparia) [12] = experiment: Test A postemergence, visual injury rating; settings: 0 is no effect, 100 is complete control; for Kochia plant response rating: 31 g ai/ha, 0 to 100 scale, approximately 10 days
Text: as §2, §3

[13] = tested on: pigweed (Amaranthus retroflexus); experiment: Test A postemergence, visual injury rating; settings: 0 is no effect, 100 is complete control; for Pigweed plant response rating: 31 g ai/ha, 0 to 100 scale, approximately 10 days
Text: as §2, §3

[14] = tested on: ragweed (common ragweed, Ambrosia elatior); experiment: Test A postemergence, visual injury rating; settings: 0 is no effect, 100 is complete control; for Ragweed plant response rating: 31 g ai/ha, 0 to 100 scale, approximately 10 days
Text: as §2, §3

[15] = tested on: wheat (Triticum aestivum); experiment: Test A postemergence, visual injury rating; settings: 0 is no effect, 100 is complete control; for Wheat plant response rating: 31 g ai/ha, 0 to 100 scale, approximately 10 days
Text: as §2, §3

[16] = tested on: barnyardgrass (Echinochloa crus-galli); experiment: Test B flooded paddy test, plant response rating; settings: 250 g ai/ha; Flood; scale of 0 to 100 where 0 is no effect and 100 is complete control; 13 to 15 days
Text: (§4) At time of treatment, test pots were flooded to 3 cm above the soil surface, treated by application of test compounds directly to the paddy water, and then maintained at that water depth for the duration of the test. Treated plants and controls were maintained in a greenhouse for 13 to 15 days, after which time all species were compared to controls and visually evaluated. […] A dash (-) response means no test result.

[17] = tested on: ducksalad (Heteranthera limosa); experiment: Test B flooded paddy test, plant response rating; settings: 250 g ai/ha; Flood; scale of 0 to 100 where 0 is no effect and 100 is complete control; 13 to 15 days
Text: as §4

rice (Oryza sativa) = experiment: Test B flooded paddy test, plant response rating; settings: 250 g ai/ha; Flood; scale of 0 to 100 where 0 is no effect and 100 is complete control; 13 to 15 days
Text: as §4

[18] = tested on: sedge, umbrella (small-flower umbrella sedge, Cyperus difformis); experiment: Test B flooded paddy test, plant response rating; settings: 250 g ai/ha; Flood; scale of 0 to 100 where 0 is no effect and 100 is complete control; 13 to 15 days
Text: as §4

SMILES | Ryegrass, Italian plant response rating ([1]; 125 g ai/ha) | Barnyardgrass plant response rating ([2]; 125 g ai/ha) | Foxtail, Giant plant response rating ([3]; 125 g ai/ha) | Kochia plant response rating (kochia (Kochia scoparia) [4]; 125 g ai/ha) | Pigweed plant response rating ([5]; 125 g ai/ha) | Ragweed plant response rating ([6]; 125 g ai/ha) | Ryegrass, Italian plant response rating (0 to 100 scale) ([7]; 125 g ai/ha) | Barnyardgrass plant response rating (0 to 100 scale) ([8]; 125 g ai/ha) | Blackgrass plant response rating (0 to 100 scale) ([9]; 125 g ai/ha) | Corn plant response rating (0 to 100 scale) (corn (Zea mays); 125 g ai/ha) | Galium plant response rating (0 to 100 scale) ([10]; 125 g ai/ha) | Foxtail, Giant plant response rating (0 to 100 scale) ([11]; 125 g ai/ha) | Kochia plant response rating (0 to 100 scale) (kochia (Kochia scoparia) [12]; 125 g ai/ha) | Pigweed plant response rating (0 to 100 scale) ([13]; 125 g ai/ha) | Ragweed plant response rating (0 to 100 scale) ([14]; 125 g ai/ha) | Wheat plant response rating (0 to 100 scale) ([15]; 125 g ai/ha) | Plant response rating, Barnyardgrass [16] | Plant response rating, Ducksalad [17] | Plant response rating, Rice (rice (Oryza sativa)) | Plant response rating, Sedge, Umbrella [18] | further results
C=C(C)COC(=O)c1c(Br)cccc1Oc1ncc(Cl)cn1 [Compound 3] | 30 | 80 | 100 | 40 | 100 | 0 | 30 | 60 | 30 | 30 | 70 | 80 | 40 | 100 | 0 | 0 | 0 | 30 | 0 | 100 | Plant response rating, Ryegrass, Italian [1]: 0; Plant response rating, Barnyardgrass [2]: 60; Plant response rating, Foxtail, Giant [3]: 70; Plant response rating, Kochia (kochia (Kochia scoparia) [4]): 0; Plant response rating, Pigweed [5]: 50; Plant response rating, Ragweed [6]: 0; Ryegrass, Italian plant response rating [7]: 0; Barnyardgrass plant response rating [8]: 20; Blackgrass plant response rating [9]: 0; Corn plant response rating (corn (Zea mays)): 0; Galium plant response rating [10]: 40; Foxtail, Giant plant response rating [11]: 30; Kochia plant response rating (kochia (Kochia scoparia) [12]): 0; Pigweed plant response rating [13]: 70; Ragweed plant response rating [14]: 0; Wheat plant response rating [15]: 0
O=C(OCC(F)(F)C(F)(F)F)c1c(F)cccc1Oc1ncc(Br)cn1 [Compound 4] | 0 | 0 | 0 | 0 | 0 | 0 | 0 | 0 | 0 | 0 | 0 | 0 | 0 | 0 | 0 | 0 | 0 | 0 | 0 | 0 | Plant response rating, Ryegrass, Italian [1]: 0; Plant response rating, Barnyardgrass [2]: 0; Plant response rating, Foxtail, Giant [3]: 0; Plant response rating, Kochia (kochia (Kochia scoparia) [4]): 0; Plant response rating, Pigweed [5]: 0; Plant response rating, Ragweed [6]: 0; Ryegrass, Italian plant response rating [7]: 0; Barnyardgrass plant response rating [8]: 0; Blackgrass plant response rating [9]: 0; Corn plant response rating (corn (Zea mays)): 0; Galium plant response rating [10]: 0; Foxtail, Giant plant response rating [11]: 0; Kochia plant response rating (kochia (Kochia scoparia) [12]): 0; Pigweed plant response rating [13]: 0; Ragweed plant response rating [14]: 0; Wheat plant response rating [15]: 0
O=C(OCC(F)(F)C(F)(F)F)c1c(F)cccc1Oc1ncc(Cl)cn1 [Compound 5] | 0 | 0 | 0 | 0 | 0 | 0 | 0 | 0 | 0 | 0 | 0 | 0 | 0 | 0 | 0 | 0 | 0 | 0 | 0 | 0 | Plant response rating, Ryegrass, Italian [1]: 0; Plant response rating, Barnyardgrass [2]: 0; Plant response rating, Foxtail, Giant [3]: 0; Plant response rating, Kochia (kochia (Kochia scoparia) [4]): 0; Plant response rating, Pigweed [5]: 0; Plant response rating, Ragweed [6]: 0; Ryegrass, Italian plant response rating [7]: 0; Barnyardgrass plant response rating [8]: 0; Blackgrass plant response rating [9]: 0; Corn plant response rating (corn (Zea mays)): 0; Galium plant response rating [10]: 0; Foxtail, Giant plant response rating [11]: 0; Kochia plant response rating (kochia (Kochia scoparia) [12]): 0; Pigweed plant response rating [13]: 0; Ragweed plant response rating [14]: 0; Wheat plant response rating [15]: 0
O=C(OCC1CCCC1)c1c(Br)cccc1Oc1ncc(Cl)cn1 [Compound 6] | 0 | 10 | 60 | 0 | 10 | 0 | 0 | 10 | 10 | 0 | 60 | 10 | 40 | 60 | 10 | 0 | 0 | 0 | 0 | 0 | Ryegrass, Italian plant response rating ([1]; 500 g ai/ha): 70; Barnyardgrass plant response rating ([2]; 500 g ai/ha): 60; Foxtail, Giant plant response rating ([3]; 500 g ai/ha): 100; Kochia plant response rating (kochia (Kochia scoparia) [4]; 500 g ai/ha): 0; Pigweed plant response rating ([5]; 500 g ai/ha): 70; Ragweed plant response rating ([6]; 500 g ai/ha): 0; Ryegrass, Italian plant response rating (0 to 100 scale) ([7]; 500 g ai/ha): 40; Barnyardgrass plant response rating (0 to 100 scale) ([8]; 500 g ai/ha): 40; Blackgrass plant response rating (0 to 100 scale) ([9]; 500 g ai/ha): 30; Corn plant response rating (0 to 100 scale) (corn (Zea mays); 500 g ai/ha): 10; Galium plant response rating (0 to 100 scale) ([10]; 500 g ai/ha): 90; Foxtail, Giant plant response rating (0 to 100 scale) ([11]; 500 g ai/ha): 50; Kochia plant response rating (0 to 100 scale) (kochia (Kochia scoparia) [12]; 500 g ai/ha): 90; Pigweed plant response rating (0 to 100 scale) ([13]; 500 g ai/ha): 90; Ragweed plant response rating (0 to 100 scale) ([14]; 500 g ai/ha): 30; Wheat plant response rating (0 to 100 scale) ([15]; 500 g ai/ha): 10
